In patent publication US4572895A, “Process for preparing an antibiotic complex by culturing actinomyces strain ATCC 39417” (priority 1985, dated 1986):
Values after ≈ are worked out from the molar mass of the structure shown.

Key:
[1] = system: Staphylococcus aureus 209P; assay: MIC, serial two-fold agar dilution; type: cell-based; conditions: nutrient agar
[2] = system: Staphylococcus aureus Smith; assay: MIC, serial two-fold agar dilution; type: cell-based; conditions: nutrient agar
[3] = system: Bacillus subtilis PCI 219; assay: MIC, serial two-fold agar dilution; type: cell-based; conditions: PCI219, nutrient agar
[4] = system: Micrococcus luteus PCI 1001; assay: MIC, serial two-fold agar dilution; type: cell-based; conditions: PCI1001, nutrient agar
Micrococcus flavus D12 = assay: MIC, serial two-fold agar dilution; type: cell-based; conditions: nutrient agar
Escherichia coli NIHJ = assay: MIC, serial two-fold agar dilution; type: cell-based; conditions: nutrient agar
[5] = system: Klebsiella pneumoniae D11; assay: MIC, serial two-fold agar dilution; type: cell-based; conditions: nutrient agar
[6] = system: Pseudomonas aeruginosa D15; assay: MIC, serial two-fold agar dilution; type: cell-based; conditions: nutrient agar
[7] = system: Candida albicans IAM 4888; assay: MIC, serial two-fold agar dilution; type: cell-based; conditions: IAM4888, Sabouraud agar
[8] = system: Cryptococcus neoformans D49; assay: MIC, serial two-fold agar dilution; type: cell-based; conditions: Sabouraud agar
[9] = system: Aspergillus fumigatus IAM 2530; assay: MIC, serial two-fold agar dilution; type: cell-based; conditions: IAM2530, Sabouraud agar
[10] = system: Trichophyton mentagrophytes D155; assay: MIC, serial two-fold agar dilution; type: cell-based; conditions: Sabouraud agar
Bacteroides fragilis = assay: MIC, serial two-fold agar dilution; type: cell-based; conditions: GAM agar, anaerobe
Clostridium difficile = assay: MIC, serial two-fold agar dilution; type: cell-based; conditions: Clostridioides difficile; GAM agar, anaerobe
Clostridium perfringens = assay: microbe, parasite or virus in culture; type: cell-based
Propionibacterium acnes = assay: MIC, serial two-fold agar dilution; type: cell-based; conditions: Cutibacterium acnes; GAM agar, anaerobe
Staphylococcus aureus = assay: anti-staphylococcal activity (MIC comparison); type: cell-based; conditions: vs BBM-2478B or chartreusin
[11] = system: gram-negative bacteria and fungi; assay: antibacterial/antifungal activity (MIC), summary; type: cell-based
[12] = system: P388, L1210 and B16 tumors; assay: antitumor activity in mice, summary over P388, L1210 and B16; type: in vivo, BDF1 mice
[13] = acute toxicity, single intraperitoneal administration; conditions: mouse, in vivo; single ip, mice (ddY strain)
solubility = type: physicochemical
[14] = system: aerobic gram-positive bacteria and anaerobic bacteria; assay: antibacterial activity, summary; type: cell-based
Source text: Nutrient agar medium was used for gram-positive and gram-negative bacteria, GAM agar medium for anaerobes and Sabouraud agar medium for fungi.

melanotic melanoma B16 = assay: antitumor activity, B16 melanoma in mice; conditions: qd 1→9
[15] = system: lymphocytic leukemia P388; assay: antitumor activity, P388 leukemia in mice; conditions: qd 1→9
lymphoid leukemia L1210 = assay: antitumor activity, L1210 leukemia in mice; conditions: qd 1→9

CO[C@@H]1[C@@H](N)[C@@H](O[C@H]2[C@H](Oc3cccc4c(O)c5c(=O)oc6ccc(C)c7c(=O)oc(c34)c5c67)O[C@H](C)[C@H](O)[C@]2(C)O)O[C@H](C)[C@@H]1O [BBM-2478A]
MIC [1]: 1.6 µg/mL (≈ 2.45 µM) | MIC [2]: 0.8 µg/mL (≈ 1.22 µM) | MIC [3]: 0.8 µg/mL (≈ 1.22 µM) | MIC [4]: 0.8 µg/mL (≈ 1.22 µM) | MIC (Micrococcus flavus D12): 0.8 µg/mL (≈ 1.22 µM) | MIC (Escherichia coli NIHJ): 100 µg/mL (≈ 153 µM) | MIC [5]: 100 µg/mL (≈ 153 µM) | MIC [6]: 100 µg/mL (≈ 153 µM) | MIC [7]: > 100 µg/mL | MIC [8]: > 100 µg/mL | MIC [9]: > 100 µg/mL | MIC [10]: > 100 µg/mL | MIC (Bacteroides fragilis): 12.5 µg/mL (≈ 19.1 µM) | MIC (Clostridium difficile): 12.5 µg/mL (≈ 19.1 µM) | MIC (Clostridium perfringens): 6.3 µg/mL (≈ 9.64 µM) | MIC (Propionibacterium acnes): 6.3 µg/mL (≈ 9.64 µM) | anti-staphylococcal activity relative to BBM-2478B or chartreusin (Staphylococcus aureus): two to four times higher | activity against gram-negative bacteria and fungi [11]: inactive | T/C values compared with chartreusin ([12]; all tumors tested, ip, qd 1→9): superior to those of chartreusin | antitumor activity ([12]; experimental mouse tumors): significant antitumor activity | LD50 [13]: 38 mg/kg | solubility in acidic water (solubility; acidic water): readily soluble | solubility in dimethyl sulfoxide, dimethylformamide, dioxane (solubility; dimethyl sulfoxide, dimethylformamide, dioxane): readily soluble | solubility in methanol, ethanol and chloroform (solubility; methanol, ethanol, chloroform): slightly soluble | solubility in other organic solvents (solubility; other organic solvents): insoluble | antibacterial activity [14]: potent antibacterial activity | Average wt. change on day 5 (melanotic melanoma B16; 0.03 mg/kg/day ip): +2.0 g | MST (melanotic melanoma B16; 0.03 mg/kg/day ip): 16.0 days | Survivors on day 5 (melanotic melanoma B16; 0.03 mg/kg/day ip): 6/6 | Survivors on day 45 (melanotic melanoma B16; 0.03 mg/kg/day ip): 0/6 | T/C (melanotic melanoma B16; 0.03 mg/kg/day ip): 114% | Average wt. change on day 5 (melanotic melanoma B16; 0.1 mg/kg/day ip): +2.5 g | MST (melanotic melanoma B16; 0.1 mg/kg/day ip): 18.5 days | Survivors on day 5 (melanotic melanoma B16; 0.1 mg/kg/day ip): 6/6 | Survivors on day 45 (melanotic melanoma B16; 0.1 mg/kg/day ip): 0/6 | Average wt. change on day 5 (melanotic melanoma B16; 0.3 mg/kg/day ip): +2.5 g | MST (melanotic melanoma B16; 0.3 mg/kg/day ip): 25.5 days | Survivors on day 5 (melanotic melanoma B16; 0.3 mg/kg/day ip): 6/6 | Survivors on day 45 (melanotic melanoma B16; 0.3 mg/kg/day ip): 0/6 | Average wt. change on day 5 (melanotic melanoma B16; 1 mg/kg/day ip): +2.2 g | MST (melanotic melanoma B16; 1 mg/kg/day ip): 34.5 days | Survivors on day 5 (melanotic melanoma B16; 1 mg/kg/day ip): 6/6 | Survivors on day 45 (melanotic melanoma B16; 1 mg/kg/day ip): 0/6 | Average wt. change on day 5 (melanotic melanoma B16; 3 mg/kg/day ip): +1.5 g | MST (melanotic melanoma B16; 3 mg/kg/day ip): 41.5 days | Survivors on day 5 (melanotic melanoma B16; 3 mg/kg/day ip): 6/6 | Survivors on day 45 (melanotic melanoma B16; 3 mg/kg/day ip): 0/6 | Average wt. change on day 5 ([15]; 0.01 mg/kg/day ip): +2.0 g | MST ([15]; 0.01 mg/kg/day ip): 10.0 days | Survivors on day 5 ([15]; 0.01 mg/kg/day ip): 6/6 | Survivors on day 45 ([15]; 0.01 mg/kg/day ip): 0/6 | T/C ([15]; 0.01 mg/kg/day ip): 111% | Average wt. change on day 5 ([15]; 0.03 mg/kg/day ip): +2.3 g | MST ([15]; 0.03 mg/kg/day ip): 10.0 days | Survivors on day 5 ([15]; 0.03 mg/kg/day ip): 6/6 | Survivors on day 45 ([15]; 0.03 mg/kg/day ip): 0/6 | Average wt. change on day 5 ([15]; 0.1 mg/kg/day ip): +1.2 g | MST ([15]; 0.1 mg/kg/day ip): 14.5 days | Survivors on day 5 ([15]; 0.1 mg/kg/day ip): 6/6 | Survivors on day 45 ([15]; 0.1 mg/kg/day ip): 0/6 | Average wt. change on day 5 ([15]; 0.3 mg/kg/day ip): +1.8 g | MST ([15]; 0.3 mg/kg/day ip): 17.0 days | Survivors on day 5 ([15]; 0.3 mg/kg/day ip): 6/6 | Survivors on day 45 ([15]; 0.3 mg/kg/day ip): 0/6 | Average wt. change on day 5 ([15]; 1 mg/kg/day ip): +0.8 g | MST ([15]; 1 mg/kg/day ip): 21.5 days | Survivors on day 5 ([15]; 1 mg/kg/day ip): 6/6 | Survivors on day 45 ([15]; 1 mg/kg/day ip): 0/6 | Average wt. change on day 5 ([15]; 3 mg/kg/day ip): -1.0 g | MST ([15]; 3 mg/kg/day ip): 20.0 days | Survivors on day 5 ([15]; 3 mg/kg/day ip): 5/5 | Survivors on day 45 ([15]; 3 mg/kg/day ip): 0/5 | Average wt. change on day 5 (lymphoid leukemia L1210; 0.01 mg/kg/day ip): +3.2 g | MST (lymphoid leukemia L1210; 0.01 mg/kg/day ip): 8.0 days | Survivors on day 5 (lymphoid leukemia L1210; 0.01 mg/kg/day ip): 6/6 | Survivors on day 45 (lymphoid leukemia L1210; 0.01 mg/kg/day ip): 0/6 | T/C (lymphoid leukemia L1210; 0.01 mg/kg/day ip): 100% | Average wt. change on day 5 (lymphoid leukemia L1210; 0.03 mg/kg/day ip): +2.9 g | MST (lymphoid leukemia L1210; 0.03 mg/kg/day ip): 8.0 days | Survivors on day 5 (lymphoid leukemia L1210; 0.03 mg/kg/day ip): 6/6 | Survivors on day 45 (lymphoid leukemia L1210; 0.03 mg/kg/day ip): 0/6 | T/C (lymphoid leukemia L1210; 0.03 mg/kg/day ip): 100% | Average wt. change on day 5 (lymphoid leukemia L1210; 0.1 mg/kg/day ip): +2.6 g | MST (lymphoid leukemia L1210; 0.1 mg/kg/day ip): 8.0 days | Survivors on day 5 (lymphoid leukemia L1210; 0.1 mg/kg/day ip): 6/6 | Survivors on day 45 (lymphoid leukemia L1210; 0.1 mg/kg/day ip): 0/6 | T/C (lymphoid leukemia L1210; 0.1 mg/kg/day ip): 100% | Average wt. change on day 5 (lymphoid leukemia L1210; 0.3 mg/kg/day ip): +1.3 g | MST (lymphoid leukemia L1210; 0.3 mg/kg/day ip): 10.5 days | Survivors on day 5 (lymphoid leukemia L1210; 0.3 mg/kg/day ip): 6/6 | Survivors on day 45 (lymphoid leukemia L1210; 0.3 mg/kg/day ip): 0/6 | Average wt. change on day 5 (lymphoid leukemia L1210; 1 mg/kg/day ip): -0.8 g | MST (lymphoid leukemia L1210; 1 mg/kg/day ip): 11.0 days | Survivors on day 5 (lymphoid leukemia L1210; 1 mg/kg/day ip): 6/6 | Survivors on day 45 (lymphoid leukemia L1210; 1 mg/kg/day ip): 0/6 | Average wt. change on day 5 (lymphoid leukemia L1210; 3 mg/kg/day ip): -0.1 g | MST (lymphoid leukemia L1210; 3 mg/kg/day ip): 12.0 days | Survivors on day 5 (lymphoid leukemia L1210; 3 mg/kg/day ip): 6/6 | Survivors on day 45 (lymphoid leukemia L1210; 3 mg/kg/day ip): 0/6
